Experiments:
Type in all cases: physicochemical
[1] = Grinding simulation experiments - wet grinding (granulation)
Experimental: Water or ethanol was added drop wise to about 20 mg of Form A, Form D, or Form T until solid was wetted sufficiently. Vortex was applied between each addition. Samples were dried under ambient condition for 10 min. Potential form transition and degree of crystallinity were evaluated by XRPD.

[2] = Variable humidity and temperature XRPD experiments
Experimental: Based on DVS and DSC results of Form C, Form C starts to loss water when humidity is below 30% or when temperature is higher than about 44° C. […] In order to determine identity of potential form changes after the dehydration and upon the solid-solid transition, variable humidity and variable temperature XRPD techniques were applied. XRPD patterns of the sample were measured online under 25° C./ambient environment (initial)-120° C./N2 protection-25° C./ambient environment-25° C./80% RH (40 min)-25° C./0% RH (15 h), and 25° C./ambient environment (initial)-250° C./N2 protection-25° C./ambient environment. […] Form L coverts back to Form C after exposure to 25° C./80% RH for 40 min.
Based on DVS and DSC results of Form D, Form D starts to loss water when humidity is below 10% or when temperature is higher than 46° C. In order to determine identity of the dehydration product, variable humidity and variable temperature XRPD techniques were applied. XRPD patterns of the sample were measured online with a temperature cycle of 25° C./ambient environment (initial)-130° C./N2 protection (10 min)-25° C./N2 protection-25° C./ambient environment (3h) and two water sorption and desorption cycles of 50% RH (initial)-90% RH (3h)-60% RH (2h)-40% RH (2h)-20% RH (3h)-10% RH (3h)-0% RH (6h)-10% RH (3h)-20% RH (3h)-50% RH at 25° C. […] (higher than dehydration temperature). Form S converts back to Form D after exposure to ambient condition for 3 h.
In order to investigate potential form change of Form A upon heating, variable temperature XRPD technique was applied. XRPD patterns of the sample were measured online with a temperature cycle of 25° C. (initial)-50° C./N2 protection-70° C./N2 protection-250° C./N2 protection-25° C./N2 protection-25° C./ambient condition (3h). […] Form A converts to Form U when temperature is 250° C., and Form U converts to Form T after cooling to 25° C.

[3] = Variable humidity and temperature XRPD experiments; remark: listed apart in the source
[4] = Hygroscopicity: water sorption and desorption by dynamic vapor sorption (DVS)
Experimental: In some embodiments, the crystalline form described herein is further characterized by is further characterized by a dynamic vapor sorption (DVS) profile. In some embodiments, a DVS is recorded according to the method as described herein with a cycle of 40-0-95-0-40% RH at 25° C.
Water sorption and desorption behaviors of Form A, Form C, Form D, and Form T were investigated by DVS at 25° C. with a cycle of 40-0-95-0-40% RH. Dm/dt was 0.002. Minimum equilibration time was 60 min. Maximum equilibration time was 360 min. XRPD was measured after DVS test to determine potential form change.

[5] = Crystallization from hot saturated solutions by slow cooling; conditions: 50° C. to 5° C. at 0.1° C./min
Experimental: Obtained solution or suspension was filtered by a 0.45 μm syringe membrane filter. Clear solutions were cooled to 5° C. at 0.1° C./min. Precipitates were collected by filtration. The solid part (wet cake) was investigated by XRPD. When differences were observed, additional investigations were performed (e.g. DSC, TGA, etc.).

[6] = Behavior under compression; conditions: 2 Mpa/2 min, hydraulic press
Experimental: XRPD characterization was performed to investigate polymorphic behavior under compression.

[7] = Equilibration with solvents at 50° C. for 1 week; conditions: XRPD of wet cake
Experimental: Obtained suspension was filtered. The solid part (wet cake) was investigated by XRPD. When differences were observed, additional investigations were performed (e.g. DSC, TGA etc.).

[8] = Vapor diffusion experiments; conditions: VD6 Ethanol (8), anti-solvent t-Butyl methyl ether, 1:4, room temperature
Experimental: After sonication for about 30 seconds, obtained solution or suspension is filtered by a 0.45 μm syringe membrane filter. A clear solution is obtained. A suitable volume of the clear solution is transferred into a small glass vial (8 mL) without a lid and the lidless small vial was placed into a large glass vial (40 mL) containing anti-solvents in the bottom (solvent: anti-solvent=1:4, v/v). The large vials are tightly capped and placed at room temperature. Precipitates were collected by filtration. Solid part (wet cake) was investigated by XRPD.

[9] = Temperature cycling experiments; conditions: TC8 Acetone/water = 1/1 (v/v) (62 mg/mL), 5-50° C., 6 cycles
Experimental: After 6 cycles, precipitates were collected at 5° C. by centrifugation. The solid part (wet cake) was investigated by XRPD. When differences were observed, additional investigations were performed (e.g. DSC, TGA etc.).

[10] = Crystallization at room temperature by fast evaporation; conditions: nitrogen flow
Source text: The samples are filtered by 0.45 μm nylon filter. Obtained solutions were fast evaporated under nitrogen flow. Solid residues were examined for their polymorphic form.

[11] = variable temperature XRPD, N2 protection

Compound: Nc1nc(=O)n(-c2ccccc2Cl)c2nc(C(F)(F)F)ccc12 [Form A, 4-Amino-1-(2-chlorophenyl)-7-(trifluoromethyl)pyrido[2,3-d]pyrimidin-2(1H)-one]
- XRPD after wet grinding ([1]; Ethanol): substantially amorphous
- tolerance to granulation with ethanol or water ([1]; wet grinding, XRPD): poor tolerance
- XRPD (XRPD method 2) ([2]; VT16 70° C./37% RH (10 min)): Form A
- XRPD (XRPD method 2) ([2]; VT18 25° C./N2 protection (10 min)): Form T
- XRPD (XRPD method 2) ([2]; VT19 25° C./37% RH (3 h)): Form T
- form change after heating to 70° C. [2, 11]: no form change
- form obtained on heating to 250° C. [2, 11]: Form U
- XRPD (XRPD method 2) ([3]; VT14 25° C./37% RH (initial)): Form A
- XRPD (XRPD method 2) ([3]; VT15 50° C./37% RH (10 min)): Form A
- XRPD (XRPD method 2) ([3]; VT17 250° C./37% RH (10 min)): Form U
- hygroscopicity ([4]; DVS at 25° C., cycle 40-0-95-0-40% RH): slightly hygroscopic
- water uptake ([4]; DVS, in 95% RH at 25° C.): 0.7%
- form change after the DVS test ([4]; XRPD after DVS): No form change

Compound: Nc1nc(=O)n(-c2ccccc2Cl)c2nc(C(F)(F)F)ccc12 [solid state Form V, 4-Amino-1-(2-chlorophenyl)-7-(trifluoromethyl)pyrido[2,3-d]pyrimidin-2(1H)-one]
- Crystalline Form formed by slow cooling of hot saturated solution ([5]; SC2 Ethanol (14 mg/mL)): Form F
- Crystalline Form formed by slow cooling of hot saturated solution ([5]; SC4 Acetone (7 mg/mL)): Form G
- Crystalline Form formed by slow cooling of hot saturated solution ([5]; SC6 Ethanol/water = 1/1 (v/v) (8 mg/mL)): Form F
- Crystalline Form formed by slow cooling of hot saturated solution ([5]; SC8 Ethanol/acetone = 1/1 (v/v) (16 mg/mL)): Form G
- XRPD after compression [6]: No form change
- Crystalline Form formed by equilibration ([7]; EQ20 Water (64 mg/mL)): Form D (mono hydrate)
- Crystalline Form formed by equilibration ([7]; EQ21 Methanol (63 mg/mL)): Form C (hemi-hydrate)
- Crystalline Form formed by equilibration ([7]; EQ22 Methanol/water = 1/1 (v/v) (64 mg/mL)): Form E (hemi-hydrate)
- Crystalline Form formed by equilibration ([7]; EQ24 Ethanol/water = 1/1 (v/v) (63 mg/mL)): Form C (hemi-hydrate)
- Crystalline Form formed by equilibration ([7]; EQ26 Acetone (65 mg/mL)): Form G
- Crystalline Form formed by equilibration ([7]; EQ27 Acetone/water = 1/1 (v/v) (63 mg/mL)): Form I
- Crystalline Form formed by equilibration ([7]; EQ29 t-Butyl methyl ether (65 mg/mL)): Form H (MTBE solvate)
- Crystalline Form formed by equilibration ([7]; EQ30 t-Butyl methyl ether/water = 95/5 (v/v) (63 mg/mL)): Form H (MTBE solvate)
- Crystalline Form formed by vapor diffusion [8]: Form H
- Crystalline Form formed by temperature cycling [9]: Form G
- Crystalline Form formed by fast evaporation ([10]; FE1 Methanol (14 mg/mL)): Form B
- Crystalline Form formed by fast evaporation ([10]; FE2 Ethanol (7 mg/mL)): Solid state Form V
- Crystalline Form formed by fast evaporation ([10]; FE3 2-Propanol (4 mg/mL)): Solid state Form V
- Crystalline Form formed by fast evaporation ([10]; FE6 Acetone (3 mg/mL)): Form G
- Crystalline Form formed by fast evaporation ([10]; FE7 Methyl ethyl ketone (3 mg/mL)): Form G
- Crystalline Form formed by fast evaporation ([10]; FE9 Tetrahydrofuran (4 mg/mL)): Form K
- Crystalline Form formed by fast evaporation ([10]; FE10 Acetonitrile (3 mg/mL)): Solid state Form V
- Crystalline Form formed by fast evaporation ([10]; FE12 Methanol/Ethyl acetate = 1/1 (v/v) (5 mg/mL)): Solid state Form V
- Crystalline Form formed by fast evaporation ([10]; FE13 Methanol/Acetonitrile = 1/1 (v/v) (5 mg/mL)): Solid state Form V
- Crystalline Form formed by fast evaporation ([10]; FE14 Ethanol/t-Butyl methyl ether = 1/1 (v/v) (5 mg/mL)): Solid state Form V
- Crystalline Form formed by fast evaporation ([10]; FE15 Ethanol/Dichloromethane = 1/1 (v/v) (5 mg/mL)): Solid state Form V
